# From US20070149485A1, “SELECTED DOSAGE FOR THE TREATMENT OF CARDIOVASCULAR AND RELATED PATHOLOGIES” (Medicure International, Inc., priority 2005, published 2007)
# Columns and labels:
# [1] = tested on: high-risk patients undergoing CABG surgery with cardiopulmonary bypass; assay: Oral P5P in high-risk patients undergoing CABG surgery (randomized, double-blind, placebo-controlled): myocardial infarction and combined incidents to POD 30; format: in vivo, human; details: for Frequencies of myocardial infarction, cerebral infarction, or death, at POD 30: Myocardial infarction, cerebral infarction or death / Frequencies of myocardial infarction, cerebral infarction, or death, at POD 30: No myocardial infarction, cerebral infarction or death / Frequencies of myocardial infarction at POD 30: Myocardial Infarction / Frequencies of myocardial infarction at POD 30: No myocardial infarction: number of patients (% of group); for reducing post-CABG morbidity and mortality: CK-MB 100 ng/ml (post-hoc) as indicator; for reducing instances of myocardial infarction: vs placebo
# Text: A randomized, double-blind placebo-controlled, dose-ranging, parallel-arrn multi-center study was undertaken, on high-risk patients undergoing CABG surgery with cardiopulmonary bypass.
# Patients were identified as “high risk” if they had two or more of the following risk factors: • Age greater than 65 years; • Current smoker;
# Approximately 900 high risk pre-CABG patients in 42 different treatment centers in North America were screened and randomized to three groups of approximately 300 patients each, prior to their bypass surgery, as follows. Patients were either placed in a control group (placebo), treated orally with 250 mg/day of P5P (250 mg/day), or treated orally with 750 mg/day of P5P (750 mg/day).
# The first dose of study medication was administered at 3-10 hours prior to CABG surgery. In the event of surgery delay or rescheduling, a second pre-operative dose of P5P was administered so that all patients received study medication 3-10 hours before surgery. Treatment continued for 30 days after surgery (post operative day (POD) 30). Patients received follow-up evaluations up to and including postoperative day (POD) 4, on POD 30 and on POD 90.
# Patients were measured for combined incidence of cardiovascular death, nonfatal myocardial infarction (MI), and nonfatal cerebral infarction up to and including post-operative day 30 (POD 30). Patients were also measured for nonfatal myocardial infarction alone. All deaths without an identifiable non-cardiovascular cause were considered of cardiovascular origin.
# Cerebral infarction (stroke) was defined clinically as any new sudden onset focal neurological deficit lasting at least 24 hours as assessed by a neurologist and after neuroimaging (computed tomography [CT] brain scan or magnetic resonance imaging [MRI]) had excluded an intracerebral hemorrhage. All patients suspected of having a stroke or transient ischemic attack (TIA) received a neurological examination (conducted by a neurologist or internist with expertise in cerebral vascular disease) within 24 hours of onset of symptoms. All patients suspected of having a stroke were submitted to cerebral imaging.
# When determining whether a patient had myocardial infarction, the following definitions were used: • A peak creatine kinase—myocardial band (CK-MB) above a certain threshold. Since different experts and different prior art clinical trials used different cut-offs for this threshold, three different thresholds were used to determine whether a patient had myocardial infarction—a post-hoc cut off threshold of 100 ng/ml (a peak CK-MB of 100 ng/ml or greater on days up to and including POD 4), a post-hoc cut off threshold of 70 ng/ml, and a predefined cut off threshold of 50 ng/ml was used; • A new q-wave evidence of myocardial infarction along with CK-MB of 35 ng/ml or above on days up to and including POD 4; • A peak CK-MB of 5× ULN (25 ng/ml) or above occurring after POD 4; • A new q-wave evidence of myocardial infarction that was not present at POD 4; or • A q-wave or non-q-wave myocardial infarction as identified by the investigator and confirmed by the Clinical Endpoint Committee. A. Myocardial Infarction Rates CK-MB Cut-off of 100 ng/ml
# [2] = tested on: adenosine triphosphate (ATP) induced calcium ion influx into cells; details: a recent evaluation; suggested antagonism of P2 purinoceptors; cited from earlier work
# [3] = oral 250 mg/day, CK-MB cut-off 50 ng/ml
# [4] = oral 250 mg/day, CK-MB cut-off 50 ng/ml (predefined)
# [5] = oral 250 mg/day, CK-MB cut-off 70 ng/ml
# [6] = oral 250 mg/day, CK-MB cut-off 70 ng/ml (post-hoc)
# [7] = oral 250 mg/day, CK-MB cut-off 100 ng/ml
# [8] = oral 250 mg/day, CK-MB cut-off 100 ng/ml (post-hoc)
# [9] = oral 750 mg/day, CK-MB cut-off 50 ng/ml
# [10] = oral 750 mg/day, CK-MB cut-off 50 ng/ml (predefined)
# [11] = oral 750 mg/day, CK-MB cut-off 70 ng/ml
# [12] = oral 750 mg/day, CK-MB cut-off 70 ng/ml (post-hoc)
# [13] = oral 750 mg/day, CK-MB cut-off 100 ng/ml
# [14] = oral 750 mg/day, CK-MB cut-off 100 ng/ml (post-hoc)
compound,measurement,setting,value
"Cc1ncc(COP(=O)(O)O)c(C=O)c1O [P5P, 3-hydroxy-2-methyl-5-[(phosphonooxy)methyl]-4-pyridine-carboxaldehyde]","Frequencies of myocardial infarction, cerebral infarction, or death, at POD 30: Myocardial infarction, cerebral infarction or death",[1]; [3],65 (21.6%)
same,"Frequencies of myocardial infarction, cerebral infarction, or death, at POD 30: No myocardial infarction, cerebral infarction or death",[1]; [3],236 (78.4%)
same,Frequencies of myocardial infarction at POD 30: Myocardial Infarction,[1]; [4],59 (19.6%)
same,Frequencies of myocardial infarction at POD 30: No myocardial infarction,[1]; [4],242 (80.4%)
same,"Frequencies of myocardial infarction, cerebral infarction, or death, at POD 30: Myocardial infarction, cerebral infarction or death",[1]; [5],41 (13.6%)
same,"Frequencies of myocardial infarction, cerebral infarction, or death, at POD 30: No myocardial infarction, cerebral infarction or death",[1]; [5],260 (86.4%)
same,Frequencies of myocardial infarction at POD 30: Myocardial Infarction,[1]; [6],34 (11.3%)
same,Frequencies of myocardial infarction at POD 30: No myocardial infarction,[1]; [6],267 (88.7%)
same,"Frequencies of myocardial infarction, cerebral infarction, or death, at POD 30: Myocardial infarction, cerebral infarction or death",[1]; [7],31 (10.3%)
same,"Frequencies of myocardial infarction, cerebral infarction, or death, at POD 30: No myocardial infarction, cerebral infarction or death",[1]; [7],270 (89.7%)
same,Frequencies of myocardial infarction at POD 30: Myocardial Infarction,[1]; [8],23 (7.6%)
same,Frequencies of myocardial infarction at POD 30: No myocardial infarction,[1]; [8],278 (92.4%)
same,"Frequencies of myocardial infarction, cerebral infarction, or death, at POD 30: Myocardial infarction, cerebral infarction or death",[1]; [9],77 (25.6%)
same,"Frequencies of myocardial infarction, cerebral infarction, or death, at POD 30: No myocardial infarction, cerebral infarction or death",[1]; [9],224 (74.4%)
same,Frequencies of myocardial infarction at POD 30: Myocardial Infarction,[1]; [10],71 (23.6%)
same,Frequencies of myocardial infarction at POD 30: No myocardial infarction,[1]; [10],230 (76.4%)
same,"Frequencies of myocardial infarction, cerebral infarction, or death, at POD 30: Myocardial infarction, cerebral infarction or death",[1]; [11],47 (15.6%)
same,"Frequencies of myocardial infarction, cerebral infarction, or death, at POD 30: No myocardial infarction, cerebral infarction or death",[1]; [11],254 (84.4%)
same,Frequencies of myocardial infarction at POD 30: Myocardial Infarction,[1]; [12],38 (12.6%)
same,Frequencies of myocardial infarction at POD 30: No myocardial infarction,[1]; [12],263 (87.4%)
same,"Frequencies of myocardial infarction, cerebral infarction, or death, at POD 30: Myocardial infarction, cerebral infarction or death",[1]; [13],34 (11.3%)
same,"Frequencies of myocardial infarction, cerebral infarction, or death, at POD 30: No myocardial infarction, cerebral infarction or death",[1]; [13],267 (88.7%)
same,Frequencies of myocardial infarction at POD 30: Myocardial Infarction,[1]; [14],23 (7.6%)
same,Frequencies of myocardial infarction at POD 30: No myocardial infarction,[1]; [14],278 (92.4%)
same,reducing post-CABG morbidity and mortality,[1]; oral 250 mg/day,effective
same,"reducing total incidents (myocardial infarction, cerebral infarction, or death)",[1]; [3],highly effective
same,reducing instances of myocardial infarction,[1]; [3],highly effective
same,"reducing total incidents (myocardial infarction, cerebral infarction, or death)","[1]; oral 250 mg/day, CK-MB cut-off 70 ng/ml, better than 750 mg/day",highly effective
same,reducing instances of myocardial infarction,[1]; [5],highly effective
same,"reducing total incidents (myocardial infarction, cerebral infarction, or death)","[1]; oral 250 mg/day, CK-MB cut-off 100 ng/ml, better than 750 mg/day",highly effective
same,reducing instances of myocardial infarction,[1]; [7],highly effective
same,reducing post-CABG morbidity and mortality,[1]; oral 750 mg/day,effective
same,"reducing total incidents (myocardial infarction, cerebral infarction, or death)",[1]; [9],did not reduce
same,reducing instances of myocardial infarction,[1]; [9],not effective
same,"reducing total incidents (myocardial infarction, cerebral infarction, or death)",[1]; [11],highly effective
same,reducing instances of myocardial infarction,"[1]; oral 750 mg/day, CK-MB cut-off 70 ng/ml, not as effective as 250 mg/day",effective
same,"reducing total incidents (myocardial infarction, cerebral infarction, or death)",[1]; [13],highly effective
same,reducing instances of myocardial infarction,[1]; [13],highly effective
same,"effectiveness at reducing post-CABG morbidity and mortality, 250 mg/day compared with 750 mg/day","[1]; oral, CK-MB level greater than 50 ng/ml (pre-defined) or 70 ng/ml (post-hoc) as indicator",higher effectiveness
same,adenosine triphosphate (ATP) induced calcium ion influx into cells,[2],inhibits
